Measurements reported in patent US20250387404A1, “FORMULATIONS AND METHODS FOR TREATING EPIDERMOLYSIS BULLOSA SIMPLEX AND RELATED CONDITIONS” (RUTGERS, THE STATE UNIVERSITY OF NEW JERSEY, priority 2022, published 2025).
Entries after “also recorded” stand apart in the source; their conditions may differ. Where two headings read alike, the source gives them in different places.

Assays:
[1] = system: K14.R125C keratinocytes; assay: Keratin aggregates by K5 immunofluorescence microscopy; assay type: cell-based, human; conditions: 0.8 μM PKC412, 24 h; DMSO-treated cells mean=56%
Description: Skin samples were obtained for diagnostic purposes. After written informed consent, primary keratinocytes were isolated from the remaining tissue. […] Keratinocytes were grown in low calcium Gibco™ Keratinocyte-SFM Medium supplemented with L-glutamine, EGF and BPE (LCM, Thermo Fisher Scientific) and cultured at 37° C., 5% CO2 and 90% humidity. To induce cell-cell contacts, LCM was changed to high calcium medium (HCM, 1.2 mM CaCl2) and cells were incubated for 24 h.

[2] = system: K14.R125C keratinocytes; assay: Epithelial sheet assay (dispase assay); assay type: cell-based, human; conditions: 1 μM, high calcium medium, 24 h, vs vehicle-treated monolayers
Description: (§1) Prior to the assay, cells were washed twice with 1.2 mM Ca^2+ PBS and incubated for 30 min at 37° C. with Dispase II (Roche Diagnostics, 9 mg/ml in 1:2 HEPES buffer:keratinocytes medium, 2 mM Ca^2+). Free-floating cell sheets were transferred to a 15 ml Falcon tube containing 5 ml 1.2 mM Ca^2+ PBS and subjected to 25 rpm overhead rotation (WiseMix overhead rotator, Witeg Labortechnik, Germany) for 1 min at room temperature. Image acquisition was done using Nikon SMZ 1500 binocular and image processing by ImageJ.

[3] = system: K14.R125G keratinocytes; assay: Epithelial sheet assay (dispase assay); assay type: cell-based, human; conditions: 1 μM, high calcium medium, 24 h
Description: as §1

[4] = system: normal human keratinocytes (NHK); assay: Electrochemical impedance spectroscopy on multielectrode arrays; assay type: cell-based; conditions: 24 h treatment; read-out: EC50 (impedance concentration response curve)
Source text: Skin samples were obtained for diagnostic purposes. After written informed consent, primary keratinocytes were isolated from the remaining tissue. Immortalized human control (NHK, normal human keratinocytes) and EBS keratinocytes (K14.R125C, K14.R125G, K14.N123S, K14.Y415H, K5.G138E/L175F and K5.E477D) were generated (Has et al. (2018) The Position of Targeted Next-generation Sequencing in Epidermolysis Bullosa Diagnosis. Acta Dermato-Venereologica 98:437-40; He Y, Maier K, Leppert J, Hausser I, Schwieger-Briel A, Weibel L, et al. (2016) Monoallelic Mutations in the Translation Initiation Codon of KLHL24 Cause Skin Fragility. Am J Hum Genet 99:1395-404). Keratinocytes were grown in low calcium Gibco™ Keratinocyte-SFM Medium supplemented with L-glutamine, EGF and BPE (LCM, Thermo Fisher Scientific) and cultured at 37° C., 5% CO2 and 90% humidity. […]
Impedimetric measurements on NHK and K14.R125C keratinocytes were performed as previously described. […] Impedance spectra (500 Hz-5 MHz) were automatically recorded every 30 min using the impedance measurement platform based on an Agilent 4294A high-precision impedance analyzer (Agilent Technologies) and the self-developed controlling software IMAT advanced. […] The cell signal (relative impedance) was determined with the self-developed analysis software IDAT v3.7.2.

[5] = system: RXXpS/pT AGC-kinase motif, P-K17 S44, P-DSP S165/S166, P-DSP S2849; assay: Immunoblot with phospho-epitope specific antibodies; assay type: cell-based, human
Source text: Skin samples were obtained for diagnostic purposes. After written informed consent, primary keratinocytes were isolated from the remaining tissue. Immortalized human control (NHK, normal human keratinocytes) and EBS keratinocytes (K14.R125C, K14.R125G, K14.N123S, K14.Y415H, K5.G138E/L175F and K5.E477D) were generated (Has et al. (2018) The Position of Targeted Next-generation Sequencing in Epidermolysis Bullosa Diagnosis. Acta Dermato-Venereologica 98:437-40; He Y, Maier K, Leppert J, Hausser I, Schwieger-Briel A, Weibel L, et al. (2016) Monoallelic Mutations in the Translation Initiation Codon of KLHL24 Cause Skin Fragility. Am J Hum Genet 99:1395-404). Keratinocytes were grown in low calcium Gibco™ Keratinocyte-SFM Medium supplemented with L-glutamine, EGF and BPE (LCM, Thermo Fisher Scientific) and cultured at 37° C., 5% CO2 and 90% humidity. To induce cell-cell contacts, LCM was changed to high calcium medium (HCM, 1.2 mM CaCl2) and cells were incubated for 24 h.
To separate proteins under denaturing conditions, sodium dodecyl sulfate polyacrylamide gel electrophoresis (SDS-PAGE) was performed. Proteins were transferred to nitrocellulose membranes (VWR) using a semi-dry blotter (Armin Baack Labortechnik). Membranes were blocked using 3% (w/v) skim milk/TBS with Tween (TBST) or 3% (w/v) bovine serum albumin (BSA)/TBST and subsequently probed with the appropriate antibodies. Chemiluminescence was detected using ChemoCam Imager (Intas). Band intensity was quantified using ImageJ software.

[6] = system: desmoplakin (DSP); assay: Desmoplakin localization by immunofluorescence microscopy; assay type: cell-based, human; conditions: 1.2 mM CaCl2, vs vehicle-treated cells
Description: Human keratinocytes grown on coverslips were fixed for 5 min in methanol (−20° C.) and 30 sec in acetone (−20° C.). Primary antibodies were diluted in 1% (w/v) BSA in TBS and incubated overnight at 4° C. in a humid chamber. The next day, coverslips were washed in TBS and incubated with the fluorophore-conjugated secondary antibody for 30 min at RT in the dark. DNA was stained with DAPI. Finally, coverslips were washed three times in TBS, rinsed briefly in aqua bidest and mounted with ProLong® Gold antifade reagent (Invitrogen). Images or Z-stacks were acquired with a confocal LSM 780 (Carl Zeiss) equipped with 40×/1.3 NA or 63×/1.4 NA oil immersion objectives and an AxioCam Mrm (Carl Zeiss). Image analysis and maximum intensity projections of Z-stacks was performed using Zen 2012 Blue software (Carl Zeiss). ImageJ was used for image processing.

[7] = system: K18 R90C mice; assay: Fas-induced liver injury; assay type: in vivo, mouse; conditions: for increase in serum alanine aminotransferase (ALT) level after Fas treatment: single 1× pretreatment (PKC412 25 mg/kg, PP2 1 mg/kg, Vem 1 mg/kg), Fas antibody 0.25 μg/g; for hepatocyte keratin filament organization: PP2 1 mg/kg ip daily 4d
Description: (§3) All mouse experiments were performed using a protocol approved by Rutgers University Institutional Animal Care and Use Committee. Previously described 4-6 weeks-old F22 male and female mice that express the human K18 R90C mutant (FVB/N background) were used. […] For immunofluorescence experiments, mouse livers were collected after CO2 euthanasia and embedded in optimum-cutting-temperature compound then stored (−80° C.). For Fas experiments, mice were treated by intraperitoneal administration of Fas antibody (0.15 μg/g body weight; BD Pharmingen). After 5 h, mice were sacrificed followed by collection of blood and liver. Livers were fixed with 10% formalin and analyzed by hematoxylin-eosin (H&E) staining or TUNEL assay. A hemorrhage score was calculated using QuPath (Quantitative Pathology & Bioimage Analysis) and ImageJ software. Apoptosis was estimated using TUNEL assay detection kit (ApopTag Peroxidase In Situ Apoptosis; Sigma Aldrich). Fluorescence images were acquired with the same exposure time and used to count the apoptotic nuclei. Serum alanine aminotransferase (ALT) levels were determined using the Liquid ALT Reagent Set (Pointe Scientific). For the acetaminophen (APAP) experiments, the liver histopathology score was determined using a 0-4 scoring system. Scoring was conducted by two scorers blinded to treatment conditions, and the average score was used.

[8] = system: K18 and K8; conditions: based on prior studies; cited from earlier work
[9] = healthy volunteers, single oral dose (50 mg) as microemulsion; cited from earlier work
[10] = system: GFP-K18 R90C lentivirus-transduced A549 cells; assay: Keratin dots-to-filaments assay (high-throughput screen and validation); assay type: cell-based, human; conditions: 5 μM, 48 h
Description: The screening strategy was performed as described. In brief, human A549 lung adenocarcinoma cells (American Type Culture Collection) were seeded into six-well plates overnight and then transduced with K8 WT and either the GFP-tagged K18 WT or GFP-tagged K18 R90C lentivirus for 2d. A549 cells were selected for the screening assay because of their high transduction efficiency and readily visualized keratin filaments. The transduced cells were seeded into 384-well plates for 1d followed by addition of compounds from the Navigator Pathways (Center for Chemical Genomics, University of Michigan). After 48 h, cells were fixed counterstained with 4′,6-diamidino-2-phenylindole (DAPI; Invitrogen). Images were taken with the Image Xpress Micro XLS High Content Imaging System then analyzed using MetaXpress software (Molecular Devices). Compounds that decrease the number of keratin dots/cell and promote keratin filament formation were selected for secondary validation. 945 compounds from the Navigator Pathways library were screened. The library consists of several daughter sets that cover a range of pathways including Autophagy, Wnt, Epigenetics, Protein Kinases, Proteases, Redox, Cannabinoids, and Natural Products.

[11] = system: GFP-K18 R90C transduced A549 cells; assay: IFN-γ/FasL-induced apoptosis in cultured cells; assay type: cell-based, human
Description: (§2) A549 cells were cultured using Ham's F-12K medium (Thermo Fisher Scientific) supplemented with 10% fetal bovine serum (Sigma Aldrich) and 1% penicillin and 10,000 U/mL streptomycin (Life Technologies).

[12] = system: K18 and K8; assay: K8/K18 phosphorylation by mass spectrometry and immunoblot; assay type: cell-based, human
Description: Cell and liver samples were solubilized using a Dounce homogenizer in 2% SDS-containing PBS supplemented with protease inhibitor (Thermo Fisher Scientific), then sonicated 80× (is pulse, intensity 70) (Fisher Scientific; Model: FB50). Lysates were pelleted (16,000 g×10 min/20° C.) and the supernatant was used for subsequent analysis. Equal amounts of protein were separated by SDS-polyacrylamide gel electrophoresis (PAGE) then transferred to polyvinylidene fluoride membranes (Bio-Rad) followed by immunoblotting. For immunoprecipitation, K18 R90C-transduced A549 cells were homogenized in PBS containing 1% Nonidet P-40 (NP40), protease inhibitors, and okadaic acid (Cayman Chemical; 1 μg/mL). […] For mass spectrometry, conjugated beads were suspended in PBS-buffered 8M urea to yield ˜6 g (in 60 μl urea-containing buffer). Samples were separated SDS-PAGE, followed by in-gel tryptic digestion then LC-MS/MS analysis. Peptides were identified by the Mass Spectrometry Facility at Rutgers University.

[13] = PP2 content in liver and serum by UPLC-UV; assay type: in vivo, mouse
Description: Mice were sacrificed and livers were harvested at the indicated times. […] The column was washed once with 1 mL 100% methanol and eluted with 1 mL 5% NH4OH in methanol. […] The evaporated sample was resuspended in […] injection solvent [80% (5% ammonium hydroxide in methanol)+20% (10 mM ammonium formate+0.1% formic acid)], and […] was injected for ultra-performance liquid chromatography (UPLC). […] The supernatant was transferred to new tubes then processed further for SPE and UPLC exactly as carried out for the liver tissue extracts.
A Waters ACQUITY UPLC system equipped with Empower software and H-Class PLUS (CH-A) Core was used. […] The column was eluted at flow rate of 0.5 ml/min with linear gradients of solvents A and B (A, 10 mM ammonium formate, 0.1% formic acid in water; B, 0.1% formic acid in methanol).

[14] = system: A549 cells; conditions: PP2 10 μM, A549 cells expressing K18 R90C
Description: as §2

[15] = system: K18 R90C mice
Description: as §3

[16] = K18 R90C mice, PP2 1 mg/kg intraperitoneally daily for 4d, female and male
Description: as §3

[17] = PKC412 25 mg/kg ip daily 4d, male and female, Fas challenge
[18] = K18 R90C-expressing A549 cells, mass spectrometry, PP2 vs DMSO
[19] = female mice, PP2 1 mg/kg ip 4d, Fas antibody 0.15 μg/g 5 h
[20] = male mice, PP2 1 mg/kg ip 4d, Fas antibody 0.15 μg/g 5 h

For 4′-N-benzoylstaurosporine [PKC412], the “keratin aggregate-containing cells (mean)” value [1] was 13%, the “epithelial monolayer integrity after rotation” value [2] was “remained fully intact” and the “fragility of mutant epithelial sheets” value [3] was “rescued fragility”. For the same compound, the EC50 [4] was 84 nM, the “phosphorylation at AGC-kinase motif RXXpS/pT” value ([5]; EBS K14.R125C cells vs vehicle-treated) was “significant reduction in phosphorylation” and the “K17 phosphorylation at P-S44” value ([5]; NHK and K14.R125C cells vs vehicle) was “significantly reduced”. For the same compound, the “DSP phosphorylation at S165 and S166” value ([5]; vs DMSO-treated cells) was “significantly reduced”, the “DSP phosphorylation at S2849” value ([5]; vs DMSO-treated cells) was “significantly reduced” and the “DSP at sites of cell-cell contacts” value [6] was “significant increase”. For the same compound, the “protection from Fas-induced liver injury, male versus female” value ([7]; PKC412 25 mg/kg ip daily 4d, Fas antibody 0.15 μg/g 5 h) was “equally protects both sexes”, the ALT levels [7, 17] was “significantly reduced” and the extent of hemorrhage [7, 17] was “significantly reduced”. For the same compound, the “increase in serum alanine aminotransferase (ALT) level after Fas treatment” value ([7]; male mice) was “significantly reduced”, the “K18 S34 and K8 S432 phosphorylation” value [8] was “no effect” and the “tolerability, single oral dose” value [9] was “well tolerated”.

In the case of CC(C)(C)n1nc(-c2ccc(Cl)cc2)c2c(N)ncnc21 [PP2, 1-tert-butyl-3-(4-chlorophenyl)-1H-pyrazolo[3,4-d]pyrimidin-4-amine], the “percentage of cells with keratin mutant aggregates” value [10] is reported as “significantly decreased”, the “induction of apoptosis under basal non-Fas condition (TUNEL)” value ([11]; 5 μM, no Fas challenge) is reported as “does not induce apoptosis” and the “cleaved caspases 3 and 7” value ([11]; PP2 5 μM 48 h then IFN-γ and FasL) is reported as “decreased presence”. The TUNEL-positive cells ([11]; PP2 5 μM 48 h then IFN-γ and FasL, without PP2 37%) was 8%, the “okadaic acid-induced hyperphosphorylation of K18/K8” value ([12]; A549 cells, PP2 5 μM 48 h, okadaic acid 1 μg/mL) was “reversed” and the “decrease of global phosphorylation of K8” value [12, 18] was 38%. For the same compound, the “decrease of global phosphorylation of K18” value [12, 18] was 43%, the “K18 S34 and K8 S432 phosphorylation” value ([12]; immunoblot, PP2 5 μM 48 h) was “significant decrease” and the “liver TUNEL-positive cells” value ([7]; PP2 1 mg/kg ip 4d, Fas challenge) was “fewer TUNEL-positive cells”. For the same compound, the “SRC phosphorylation at stimulatory phospho-site Y416 in liver” value ([7]; female livers) was “not female”, the “hepatocyte keratin filament organization” value ([7]; female livers) was “not female” and the ALT levels [7, 19] was “not female”. For the same compound, the parenchymal liver hemorrhage [7, 19] was “not female”, the “SRC phosphorylation at stimulatory phospho-site Y416 in liver” value ([7]; male livers) was “decreased” and the “hepatocyte keratin filament organization” value ([7]; male livers) was “normalized keratin filaments”. For the same compound, the ALT levels [7, 20] was “improved”, the parenchymal liver hemorrhage [7, 20] was “improved” and the “increase in serum alanine aminotransferase (ALT) level after Fas treatment” value ([7]; male mice) was “significantly reduced”. For the same compound, the PP2 in serum ([13]; 1 mg/kg, 1 h after administration) was “no detectable PP2”, the PP2 in liver ([13]; after 4 h, male or female mice) was “no detectable PP2” and the “PP2 levels in male mouse liver compared to female mouse liver” value ([13]; as a function of time) was “significantly higher”. The PP2 in liver ([13]; male and female FVB/N mice, 1 mg/kg, 1 h after administration) was “detected”, the tolerability in cells [14] was “not well tolerated” and the tested necrosis markers ([15]; PP2 vs vehicle) was “no significant difference”. The histologic protection ([15]; male compared with female PP2-treated mice) was “significant histologic protection” and the “body or liver weight” value [16] was “does not have an effect; also recorded: no significant effect”.
